The text below walks through data of article PMC11909988 (BMC Cancer, 2025).

Structures are written as SMILES. Entries after “also recorded” stand apart in the source; their conditions may differ.

For assay [1], the system named is IDH1-R132H mutant U87MG cells. Put plainly: FRET imaging of D2HGlo cellular probes in IDH1 mutant glioma cells. It is filed as cell-based, human.
The subject of assay [2] is IDH1 wildtype U87MG cells. Put plainly: FRET imaging of D2HGlo cellular probes in IDH1 wildtype glioma cells. The class given is cell-based, human. The settings on record: for acute change of Cyto-D2HGlo FRET ratio: approximately 5.5 min.
The subject of assay [3] is IDH1-R132H mutant U87MG cells. Put plainly: D-2-HG in cell culture supernatant measured with D2HGlo, mutant cells. The class given is cell-based, human. Conditions: 48 h.
The next assay relates to mutant IDH1. The settings on record: newly diagnosed and advanced cancer; cited from earlier work.
Another assay concerns the target D2HGlo (Achromobacter denitrificans, UniProt A0A6N0JVZ6). Put plainly: Ligand binding and selectivity of purified D2HGlo. The settings on record: for response of D2HGlo (FRET ratio) to metabolite: concentrations up to 100 µM.

D2HGlo, sequence (A0A6N0JVZ6 1-238, other chains not shown): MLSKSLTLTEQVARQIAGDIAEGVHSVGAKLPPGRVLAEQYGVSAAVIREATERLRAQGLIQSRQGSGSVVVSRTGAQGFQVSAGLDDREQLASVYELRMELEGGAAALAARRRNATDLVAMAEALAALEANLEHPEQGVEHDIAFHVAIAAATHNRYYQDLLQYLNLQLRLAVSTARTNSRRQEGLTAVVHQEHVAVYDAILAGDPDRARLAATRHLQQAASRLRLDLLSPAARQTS

For `O=CC[C@@H](O)[C@H](O)[C@H](O)CO` [2-DG, 2-Deoxy-D-glucose], the “acute change of Cyto-D2HGlo FRET ratio” value is “reduced the FRET ratio” in assay [1] (2-DG 10 mM, approximately 5.5 min) and “unaffected” in assay [2] (2-DG 10 mM). The “concentration of D-2-HG in the supernatant” value in assay [3] (2-DG 10 mM) is recorded as “reduced to levels comparable to untreated wildtype cells”.
For `N#Cc1ccnc(N2C(=O)CC[C@H]2C(=O)N(c2cncc(F)c2)[C@H](C(=O)NC2CC(F)(F)C2)c2ccccc2Cl)c1` [AG-120], the “2-HG levels in patients” value in the assay on mutant IDH1 was “reduction of 2-HG to levels resembling those seen in healthy populations”. For the same compound, in assay [1] (AG-120 3 µM, 48 h), the “average FRET ratio of Cyto-, Nuc- and Mito-D2HGlo (D-2-HG level)” value is reported as “reduced the average FRET ratio in all three compartments in IDH1 mutant cells to levels comparable with IDH1 wildtype cells; also recorded: decrease to levels resembling those found in IDH1 wildtype cells”. In addition, in assay [1] (AG-120 10 μM, 15 min following drug addition), the “acute change of Cyto-D2HGlo FRET ratio” value is given as “did not result in acute changes”. Further, the “D-2-HG levels (FRET ratio)” value in assay [2] (AG-120 3 µM, 48 h) is recorded as “no effect”. In addition, the “D-2-HG concentration of supernatant” value in assay [3] (AG-120 3 µM) is 2.88 ± 0.59 µM.
Take `CN(C)c1ccc(C2Nc3ccc4ccccc4c3C3=C2C(=O)CC(C)(C)C3)cc1Br` (stereo not drawn) [Compound 968]: the “acute change of Cyto-D2HGlo FRET ratio” value in assay [1] (Compound 968 1 µM, approximately 5.5 min) is “did not elicit any changes”; in assay [2] (Compound 968 1 µM), “did not elicit any changes”. Also, the “D-2-HG accumulation in cell culture supernatants” value in assay [3] (Compound 968 1 µM, wildtype and mutant cells (Fig. 5d)) was “nor did it effect D-2-HG accumulation”.
In the case of `O=C(O)CN(CCN(CC(=O)O)CC(=O)O)CC(=O)O` [EDTA], the “effect on D-2-HG induced FRET response of D2HGlo” value on D2HGlo (1 mM EDTA in titration buffer) is recorded as “prevents D-2-HG induced changes to FRET ratio”.
As to `N[C@@H](CCC(=O)O)C(=O)O` [Glutamate, L-glutamic acid], the “response of D2HGlo (FRET ratio) to metabolite” value (from here on “response of D2HGlo (FRET ratio)”) on D2HGlo was “did not respond”.
For `C[C@H](O)C(=O)[O-].[Na+]` [Lactate, sodium L-lactate], the “response of D2HGlo (FRET ratio)” value at D2HGlo is “did not respond”.
For the compound `CC(=O)C(=O)O` [Pyruvate, Sodium pyruvate], on D2HGlo, the “response of D2HGlo (FRET ratio)” value is given as “did not respond”.
